Test results taken from patent US8901130B2, “Low hygroscopic aripiprazole drug substance and processes for the preparation” (Ostuka Pharmaceutical Co., Ltd., priority 2001, dated 2014).

Experiment: Hygroscopicity test (60° C./100% RH, 24 hours, Karl Fischer water content)
Format: physicochemical
Details: for Moisture Content After 24 hrs (%): 24 hours in dessicator at humidity 100%; for Moisture Content After 24 hrs (%) / hygroscopicity (water content after exposure): temperature 60° C.; for Initial Moisture Content (%): before exposure to 60° C./100% humidity; for hygroscopicity (water content after exposure): left for 24 hours in a dessicator set at humidity 100%
Procedure: (7) Hygroscopicity Test Method
One g of the sample was accurately weighed, in a weighing bottle (diameter 5 cm), covered with kimwipes and left to rest in a 60° C./100% RH environment (water/dessicator). 24 hours later, the weighing bottle was removed, transferred to an environment of a room temperature and about 30% RH (magnesium chloride hexahydrate saturated water solution/dessicator) and left, to rest for 24 hours and the water content of the sample was measured by the Karl Fischer method.

Row | Structure (SMILES) | Moisture Content After 24 hrs (%) | Initial Moisture Content (%) | hygroscopicity (water content after exposure)
1 | O=C1CCc2ccc(OCCCCN3CCN(c4cccc(Cl)c4Cl)CC3)cc2N1 [Example 6, aripiprazole] | 0.04% | 0.04% | ≤ 0.4%
2 | O=C1CCc2ccc(OCCCCN3CCN(c4cccc(Cl)c4Cl)CC3)cc2N1 [Example 9, aripiprazole] | 0.01% | 0.03% | ≤ 0.4%
3 | O=C1CCc2ccc(OCCCCN3CCN(c4cccc(Cl)c4Cl)CC3)cc2N1 [Example 13, aripiprazole] | 0.03% | 0.04% | ≤ 0.4%
4 | O=C1CCc2ccc(OCCCCN3CCN(c4cccc(Cl)c4Cl)CC3)cc2N1 [Example 2, aripiprazole] | 0.04% | 0.04% | ≤ 0.4%
5 | O=C1CCc2ccc(OCCCCN3CCN(c4cccc(Cl)c4Cl)CC3)cc2N1 [Reference Example 2, aripiprazole] | 1.78% | 0.04% | 1.78%
6 | O=C1CCc2ccc(OCCCCN3CCN(c4cccc(Cl)c4Cl)CC3)cc2N1 [Example 3, aripiprazole] | 0.02% | 0.02% | ≤ 0.4%
7 | O=C1CCc2ccc(OCCCCN3CCN(c4cccc(Cl)c4Cl)CC3)cc2N1 [Example 4, aripiprazole] | 0.02% | 0.02% | ≤ 0.4%
8 | O=C1CCc2ccc(OCCCCN3CCN(c4cccc(Cl)c4Cl)CC3)cc2N1 [Anhydrous Aripiprazole Crystals B, aripiprazole] | – | – | ≤ 0.4%
9 | O=C1CCc2ccc(OCCCCN3CCN(c4cccc(Cl)c4Cl)CC3)cc2N1 [Example 10, aripiprazole] | 0.05% | 0.05% | no more than 0.4%
10 | O=C1CCc2ccc(OCCCCN3CCN(c4cccc(Cl)c4Cl)CC3)cc2N1 [Example 8, aripiprazole] | 0.03% | 0.04% | ≤ 0.4%
11 | O=C1CCc2ccc(OCCCCN3CCN(c4cccc(Cl)c4Cl)CC3)cc2N1 [Reference Example 1, aripiprazole] | 3.28% | 0.04% | 3.28%
12 | O=C1CCc2ccc(OCCCCN3CCN(c4cccc(Cl)c4Cl)CC3)cc2N1 [Example 11, aripiprazole] | 0.03% | 0.03% | ≤ 0.4%
13 | O=C1CCc2ccc(OCCCCN3CCN(c4cccc(Cl)c4Cl)CC3)cc2N1 [Example 7, aripiprazole] | 0.03% | 0.04% | ≤ 0.4%
14 | O=C1CCc2ccc(OCCCCN3CCN(c4cccc(Cl)c4Cl)CC3)cc2N1 [Example 15, aripiprazole] | 0.04% | 0.04% | ≤ 0.4%
15 | O=C1CCc2ccc(OCCCCN3CCN(c4cccc(Cl)c4Cl)CC3)cc2N1 [Example 5, aripiprazole] | 0.04% | 0.04% | ≤ 0.4%
16 | O=C1CCc2ccc(OCCCCN3CCN(c4cccc(Cl)c4Cl)CC3)cc2N1 [Example 12, aripiprazole] | 0.03% | 0.04% | ≤ 0.4%
17 | O=C1CCc2ccc(OCCCCN3CCN(c4cccc(Cl)c4Cl)CC3)cc2N1 [Example 14, aripiprazole] | 0.09% | 0.06% | ≤ 0.4%
